Source: patent US20160251342A1, “ALDEHYDE DERIVATIVE OF SUBSTITUTED OXAZOLIDINONES” (WANBURY LTD., priority 2012, published 2016)

Experiments:
[1] = Stability in simulating intestinal fluid (SIF); type: physicochemical; conditions: SIF pH 7.4, up to 120 min
Description: (§1) On completion of incubation period, the solution is centrifuged and supernatant is taken. To the supernatant, ice cold acetonitrile containing IS is added, vortexed and injected into LCMS/MS.
(§2) API 4000, ESI Agilent 1100 column: Gemini Nx 100 mm×4.6 mm 5.μ; column temperature: 30° C.; eluent A: 0.1% formic acid in water, eluent B: acetonitrile; gradient: 0-2.5 min 95% A, 5% B; 2.5-2.6 min 5% A, 95% B; 2.6-4.2 min 95% A, 5% B; flow rate: 0.8 ml/min; ESI. Q1:464.098, Q3:144.255
(§3) SIF/SGF: 2.38 g of SIF original powder (biorelavant media) is dissolved in 1 L of milliQ water. The pH of the solution is adjusted for SIF (7.4) and SGF (2.2) with 0.1N HCl. The ratios of the peak areas (F) at the respective time points in relation to the peak areas at the starting time are calculated. […] The peak area (F) is directly correlated to the amount of test compound which is quantified by the LC MS method.
(§4) In simulating intestinal and gastric fluid, the area of the formula B compared with zero minute area to 120 min.

[2] = Stability in simulating gastric fluid (SGF); type: physicochemical; conditions: SGF pH 2.2, up to 120 min
Description: as §1, §2, §3, §4

[3] = test system: plasma protein; test: Plasma protein binding (dialysis), rat; type: in vitro ADME
Description: A compound solution (1 mM in DMSO) (5 μL), according to the invention is added to the respective plasma matrices of rat or human or mouse (1 ml).
Add 150 μl of phosphate buffer to receiving side of the dialysis well. […] Precipitate with Acetonitrile and dilute samples prior to analysis in 1.5 ml polypropylene tubes. Remove 50 μl from the sample side of dialysis well and add 50 μl of phosphate buffer+300 μl of acetonitrile containing IS. Remove 50 μl from the buffer side of the dialysis well and add 50 μl of respective matrix plasma+300 μl of ACN. Then vortexed and centrifuged for 5 min, and supernatant is taken and injected into LCMS.
Different test concentration ranging from 0.1 μM to 20 μM are made in methanol:water (90:10). Test solutions are added to the premixed matrix containing plasma:phosphate buffer (50:50). Precipitate with 300 μl of ice cold acetonitrile containing IS, vortexes and centrifuged. Supernatant is taken and injected into LCMS.
Percentage of plasma protein binding was obtained via Equation (2): % Fraction unbound=(concentration on the buffer side/concentration on the sample side)*100

[4] = Intravenous and oral pharmacokinetics in Wistar rats; type: in vivo; conditions: after i.v. administration, first measurement point
Description: On the day before administration of the substance, a catheter for obtaining blood is implanted in the jugular vein of the experimental animals (male Wistar rats, body weight 200-250 g) under Isofluran® anesthesia.
Blood samples (8-12 time points) are taken through the catheter sequentially over the course of 24 h after administration of the substance. The administration volume is 10 ml/kg for oral and 1 ml/kg for IV in male Wistar rats. Intravenous administration is via a formulation of 2% N—N Dimethyl acetamide/ethanol 10%/PEG400(30%)/water for IV injection (58%) and via Tween80/PEG400/sterile water in the case of oral administration. […]
Plasma is obtained by centrifuging the samples in heparinized tubes. […] After centrifugation, compound formula (B) and, where appropriate, known cleavage products of the compound formula (B) in the supernatant are determined quantitatively using a suitable LC/MS-MS method.
The measured plasma concentrations are used to calculate pharmacokinetic parameters of the test substance and of the active ingredient compound (A) liberated there from, such as AUC, Cmax, T½ (half-life) and CL (clearance). […]
The plasma concentration/time plots determined are used to calculate the pharmacokinetic parameters such as AUC, Cmax, MRT (mean residence time), t½ (half life) and CL (clearance) employing the validated pharmacokinetic calculation programs. […]

Stability at simulating intestinal conditions [1]: stable
Conclusion (stability in SGF) [2]: is stable
Observation: amount of test product [3]: Not quantificable amount of test
Observation: formed Rivaroxaban bound to plasma protein ([3]; phrase continues 'High bound' in next line): Rivaroxaban found to be moderate-
Detectability of unchanged test substance in plasma [4]: no longer detectable
SMILES: O=CN(C[C@H]1CN(c2ccc(N3CCOCC3=O)cc2)C(=O)O1)C(=O)c1ccc(Cl)s1 [compound formula (B), 5-chloro-N-formyl-N-({(5S)-2-oxo-3-[4-(3-oxomorpholin-4-yl)phenyl]-1,3-oxazolidin-5-yl}methyl)thiophene-2-carboxamide]
